Where two headings read alike, the source gives them in different places.
Biological target: T1, human C5a receptor (CD88) (Homo sapiens, UniProt P21730)
T1 construct: expressed in transfected cells; host or cells: rat basophilic leukemia (RBL) cells, stably transfected
T1 sequence (P21730 1-350): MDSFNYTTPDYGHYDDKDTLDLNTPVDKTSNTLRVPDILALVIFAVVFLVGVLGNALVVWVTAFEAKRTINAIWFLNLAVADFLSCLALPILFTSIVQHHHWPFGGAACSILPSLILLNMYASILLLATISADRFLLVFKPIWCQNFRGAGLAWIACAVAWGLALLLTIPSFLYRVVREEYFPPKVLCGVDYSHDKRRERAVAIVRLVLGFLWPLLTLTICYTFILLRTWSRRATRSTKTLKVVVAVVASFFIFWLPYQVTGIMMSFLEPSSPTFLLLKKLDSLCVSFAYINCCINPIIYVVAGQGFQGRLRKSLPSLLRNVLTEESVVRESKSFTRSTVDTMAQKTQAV
Assay: C5a induced enzyme (glucosaminidase) release assay in RBL cells expressing the human C5a receptor (Example 28)
Assay type: cell-based
Conditions: RBL cells with human C5aR
How it was run: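 Rat basophilic leukemia (RBL) cells expressing human C5a receptor, at 2×10^6 cells/ml, primed with cytochalasin B, then incubated with test compound 10 min at 37 °C.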

[1] = inhibition of C5a induced enzyme release, read-out: Activity-range (antagonistic activity, IC50 enzyme release)
[2] = read-out: IC50 for the inhibition of C5a induced enzyme release

CCc1c(N)cc(Cl)c(CC)c1NC(=O)N(Cc1ccc(Cl)cn1)c1ccc(C(C)C)cc1 [compound 105, 3-(3-amino-5-chloro-2,6-diethyl-phenyl)-1-(5-chloro-pyridin-2-ylmethyl)-1-(4-isopropyl-phenyl)-urea]
IC50 [1]: 200 to 5000 nM

CCc1ccc(N(Cc2ccc(C)nc2)C(=O)Nc2c(CC)ccc(N)c2CC)cc1 [compound 107, 3-(3-amino-2,6-diethyl-phenyl)-1-(4-ethyl-phenyl)-1-(6-methyl-pyridin-3-ylmethyl)-urea]
IC50 [1]: 200 to 5000 nM

CCc1c(N)cc(Cl)c(CC)c1NC(=O)N(Cc1ccc(OC)cc1)c1ccc2c(c1)CCC2 [compound 44, 3-(3-amino-5-chloro-2,6-diethyl-phenyl)-1-indane-5-yl-1-(4-methoxy-benzyl)-urea]
IC50 [1]: 200 to 5000 nM

CCc1c(N)cc(Cl)c(CC)c1NC(=O)N(c1ccc(C(C)C)cc1)[C@H](C)c1ccc(OC)cc1 [compound 56, (R)-3-(3-amino-5-chloro-2,6-diethyl-phenyl)-1-(4-isopropyl-phenyl)-1-[1-(4-methoxy-phenyl)ethyl]-urea]
IC50 [2]: 619 nM

CCc1c(N)cc(Cl)c(CC)c1NC(=O)N(c1ccc(OC)cc1)[C@@H](C)c1ccc(Cl)cc1 [compound 92, (S)-3-(3-amino-5-chloro-2,6-diethyl-phenyl)-1-[1-(4-chloro-phenyl)-ethyl]-1-(4-methoxy-phenyl)-urea]
IC50 [1]: 60 to 200 nM

COc1ccc(CN(C(=O)Nc2c(C(C)C)ccc(N)c2C(C)C)c2ccc(C(C)C)cc2)cc1 [compound 25, 3-(3-Amino-2,6-diisopropyl-phenyl)-1-(4-isopropyl-phenyl)-1-(4-methoxy-benzyl)-urea]
IC50 [1]: 200 to 5000 nM

CCc1ccc(N(Cc2ccc(C)cc2)C(=O)Nc2c(CC)ccc(N)c2CC)cc1 [compound 54, 3-(3-amino-2,6-diethyl-phenyl)-1-(4-ethyl-phenyl)-1-(4-methyl-benzyl)-urea]
IC50 [1]: 200 to 5000 nM

CCc1ccc(N(Cc2ccc(Cl)cc2)C(=O)Nc2c(CC)c(N)cc(Cl)c2CC)cc1
IC50 [2]: 86 nM

CCc1c(N)cc(Cl)c(CC)c1NC(=O)N(c1ccc(OC)c(F)c1)[C@@H](C)c1ccc(Cl)cc1 [compound 94, (S)-3-(3-amino-5-chloro-2,6-diethyl-phenyl)-1-[1-(4-chloro-phenyl)-ethyl]-1-(3-fluoro-4-methoxy-phenyl)-urea]
IC50 [1]: < 60 nM

CCc1c(N)cc(Cl)c(CC)c1NC(=O)N(Cc1ccc(C(F)(F)F)cc1)c1ccc(C(C)C)cc1 [compound 49, 3-(3-amino-5-chloro-2,6-diethyl-phenyl)-1-(4-isopropyl-phenyl)-1-(4-trifluormethyl-benzyl)-urea]
IC50 [1]: 200 to 5000 nM

CCc1c(Cl)cc(NCC(=O)OC)c(CC)c1NC(=O)N(Cc1ccc(OC)cc1)c1ccc(C(C)C)cc1 [compound 55, {5-chloro-2,4-diethyl-3-[3-(4-isopropyl-phenyl)-3-(4-methoxy-benzyl)-ureido]-phenylamino} acetic acid methyl-ester]
IC50 [1]: 200 to 5000 nM

CCc1c(N)cc(Cl)c(CC)c1NC(=O)N(Cc1ccc(Cl)cc1)c1cccc2ccccc12 [compound 108, 3-(3-amino-5-chloro-2,6-diethyl-phenyl)-1-(4-chloro-benzyl)-1-naphthaline-1-yl-urea]
IC50 [1]: 200 to 5000 nM

CCc1ccc(N(C(=O)Nc2c(CC)c(N)cc(Cl)c2CC)[C@@H](C)c2ccc(Cl)cc2)cc1F
IC50 [2]: 35 nM

CCc1c(N)cc(Cl)c(CC)c1NC(=O)N(Cc1cnc(C)cn1)c1ccc(C(C)C)cc1 [compound 75, 3-(3-amino-5-chloro-2,6-diethyl-phenyl)-1-(4-isopropyl-phenyl)-1-(5-methyl-pyrazin-2-ylmethyl)-urea]
IC50 [1]: 60 to 200 nM

CCc1c(N)cc(Cl)c(CC)c1NC(=O)N(Cc1cccnc1)c1ccc(C(C)C)cc1 [compound 74, 3-(3-amino-5-chloro-2,6-diethyl-phenyl)-1-(4-isopropyl-phenyl)-1-pyridin-3-ylmethyl-urea]
IC50 [1]: 200 to 5000 nM

CCc1c(N)cc(Cl)c(CC)c1NC(=O)N(c1ccc(Cl)cc1)[C@@H](C)c1ccc(Cl)cc1 [compound 86, (S)-3-(3-amino-5-chloro-2,6-diethyl-phenyl)-1-(4-chlor-phenyl)-1-[1-(4-chloro-phenyl)-ethyl]-urea]
IC50 [1]: 200 to 5000 nM

CCc1c(N)cc(Cl)c(CC)c1NC(=O)N(Cc1ccccc1)c1ccc(C(C)C)cc1 [compound 43, 3-(3-amino-5-chloro-2,6-diethyl-phenyl)-1-benzyl-1-(4-isopropyl-phenyl)-urea]
IC50 [1]: 200 to 5000 nM

COc1ccc2c(c1)C(C(=O)N(Cc1ccc(N(C)C)cc1)c1ccc(C(C)C)cc1)CCC2 (stereo not drawn) [compound 12, 7-methoxy-1,2,3,4-tetrahydro-naphthalin-1-carbonsäure (4-dimethylamino-benzyl)-(4-isopropyl-phenyl)-amide, reference compound]
IC50 (IC50 for the inhibition of C5a induced enzyme release): 89 nM
IC50 [1]: 60 to 200 nM

CCc1ccc(N)c(CC)c1NC(=O)N(Cc1ccc(OC)cc1)c1ccc(C(C)C)cc1 [compound 28, 3-(3-amino-2,6-diethyl-phenyl)-1-(4-isopropyl-phenyl)-1-(4-methoxy-benzyl)-urea]
IC50 [1]: 200 to 5000 nM

CCc1c(N)cc(Cl)c(CC)c1NC(=O)N(Cc1ccc(OC)nc1)c1ccc(C(C)C)cc1 [compound 47, 3-(3-amino-5-chloro-2,6-diethyl-phenyl)-1-(4-isopropyl-phenyl)-1-(6-methoxy-pyridin-3-ylmethyl)-urea]
IC50 [1]: 200 to 5000 nM

CCc1ccc(N)c(CC)c1NC(=O)N(Cc1ccc2c(c1)CCO2)c1ccc(C(C)C)cc1 [compound 67, 3-(3-amino-2,6-diethyl-phenyl)-1-(2,3-dihydro-benzofuran-5-ylmethyl)-1-(4-isopropyl-phenyl)-urea]
IC50 [1]: 200 to 5000 nM

CCc1ccc(N(C(=O)Nc2c(CC)c(N)cc(Cl)c2CC)C(C)c2ccc(C)nc2)cc1 (stereo not drawn) [compound 123, 3-(3-amino-5-chloro-2,6-diethyl-phenyl)-1-(4-ethyl-phenyl)-1-[1-(6-methyl-pyridin-3-yl)-ethyl]-urea]
IC50 [1]: 60 to 200 nM

CCc1c(N)cc(Cl)c(CC)c1NC(=O)N(Cc1cnc(OC)nc1OC)c1ccc(C(C)C)cc1 [compound 77, 3-(3-amino-5-chloro-2,6-diethyl-phenyl)-1-(2,4-dimethoxy-pyrimidin-5-ylmethyl)-1-(4-isopropyl-phenyl)-urea]
IC50 [1]: 200 to 5000 nM

CCc1ccc(N)c(CC)c1NC(=O)N(Cc1ccccc1OC)c1ccc(C(C)C)cc1 [compound 63, 3-(3-amino-2,6-diethyl-phenyl)-1-(4-isopropyl-phenyl)-1-(2-methoxy-benzyl)-urea]
IC50 [1]: 200 to 5000 nM

CCc1c(N)cc(Cl)c(CC)c1NC(=O)N(Cc1ccc(C)nc1)c1ccc(OC)cc1F [compound 124, 3-(3-amino-5-chloro-2,6-diethyl-phenyl)-1-(2-fluoro-4-methoxy-phenyl)-1-(6-methyl-pyridin-3-ylmethyl)-urea]
IC50 [1]: 200 to 5000 nM

CCc1ccc(N)c(CC)c1NC(=O)N(CCc1ccccc1)c1ccc(C(C)C)cc1 [compound 51, 3-(3-amino-2,6-diethyl-phenyl)-1-(4-isopropyl-phenyl)-1-phenethyl-urea]
IC50 [1]: 200 to 5000 nM

CCc1c(N)cc(Cl)c(CC)c1NC(=O)N(c1ccc(C(C)C)cc1)[C@@H]1CCCc2ccccc21 [compound 41, (R)-3-(3-amino-5-chloro-2,6-diethyl-phenyl)-1-(4-isopropyl-phenyl)-1-(1,2,3,4-tetrahydro-naphthaline-1-yl)-urea]
IC50 [1]: 200 to 5000 nM

CCc1c(N)cc(Cl)c(CC)c1NC(=O)N(Cc1ccc(Cl)cc1)c1ccc(OC)c(OC)c1 [compound 114, 3-(3-amino-5-chloro-2,6-diethyl-phenyl)-1-(4-chloro-benzyl)-1-(3,4-dimethoxy-phenyl)-urea]
IC50 [1]: 200 to 5000 nM

CCc1ccc(Cl)c(CC)c1NC(=O)N(Cc1ccc(OC)cc1)c1ccc(C(C)C)cc1 [compound 24, 3-(3-Chlor-2,6-diethyl-phenyl)-1-(4-isopropyl-phenyl)-1-(4-methoxy-benzyl)-urea]
IC50 [2]: 1050 nM

CCc1ccc(N)c(CC)c1NC(=O)N(CC1CCCCC1)c1ccc(C(C)C)cc1 [compound 61, 3-(3-amino-2,6-diethyl-phenyl)-1-cyclohexylmethyl-1-(4-isopropyl-phenyl)-urea]
IC50 [1]: 200 to 5000 nM

CCc1c(N)cc(Cl)c(CC)c1NC(=O)N(Cc1ccc(Cl)cc1)c1ccc(NC)c2ccccc12 [compound 139, 3-(3-amino-5-chloro-2,6-diethyl-phenyl)-1-(4-chloro-benzyl)-1-(4-methylamino-naphthalin-1-yl)-urea]
IC50 [1]: 200 to 5000 nM

CCc1c(N)cc(Cl)c(CC)c1NC(=O)N(CCc1ccc(C)cc1)c1ccc(C(C)C)cc1 [compound 52, 3-(3-amino-5-chloro-2,6-diethyl-phenyl)-1-(4-isopropyl-phenyl)-1-(2-p-tolyl-ethyl)-urea]
IC50 [1]: 200 to 5000 nM

CCc1ccc(N)c(CC)c1NC(=O)N(c1ccc(C(C)C)cc1)C1CCc2ccccc21 (stereo not drawn) [compound 90, 3-(3-amino-2,6-diethyl-phenyl)-1-indane-1-yl-1-(4-isopropyl-phenyl)-urea]
IC50 [1]: 200 to 5000 nM

CCc1c(N)cc(Cl)c(CC)c1NC(=O)N(c1ccc(C(C)C)cc1)C1CCOc2ccccc21 (stereo not drawn) [compound 89, 3-(3-amino-5-chloro-2,6-diethyl-phenyl)-1-chroman-4-yl-1-(4-isopropyl-phenyl)-urea]
IC50 [1]: 200 to 5000 nM

CCc1ccc(N(C(=O)Nc2c(CC)c(N)cc(Cl)c2CC)C2CCc3cc(Cl)ccc32)cc1 (stereo not drawn) [compound 104, 3-(3-amino-5-chloro-2,6-diethyl-phenyl)-1-(5-chloro-indane-1-yl)-1-(4-ethyl-phenyl)-urea]
IC50 [1]: 60 to 200 nM

From US8071810B2, “C5a receptor antagonists” (Jerini AG, priority 2005, dated 2011)
